Test results reported in PubChem BioAssay AID248 (DTP/NCI, 2004).
“And” between values parts separate entries of the source, which are not always exact repeats. Equal values may be shown once. Inconclusive results and toxic doses are left out. Square brackets hold non-standard residues; d marks the D form. Peptide text beside a SMILES is read from it. * marks the point of attachment. ξ: configuration not given here. Cbz = O=C(OCc1ccccc1)*; ξV = CC(C)C(N)C(=O)O; OBn = c1ccc(CO*)cc1

System: L1210 leukemia ip in BDF1 mice, survival T/C
Assay: NCI In Vivo Anticancer Drug Screen. Data for tumor model L1210 Leukemia (intraperitoneal) in B6D2F1 (BDF1) mice
Conditions: endpoint: mean survival time, higher = longer survival
Outline: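 Survival endpoint. Drug-treated group vs vehicle group, expressed as T divided by C. Tumor passaged by transplantation.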

[1] = dose: 50.0 mg/kg/injection, schedule: Q04DX003 (ip), vehicle: saline
[2] = dose: 100.0 mg/kg/injection, schedule: Q04DX003 (ip), vehicle: saline
[3] = dose: 200.0 mg/kg/injection, schedule: Q04DX003 (ip), vehicle: saline
[4] = dose: 400.0 mg/kg/injection, schedule: Q04DX003 (ip), vehicle: saline
[5] = dose: 50.0 mg/kg/injection, schedule: Q01DX009 (ip), vehicle: saline
[6] = dose: 100.0 mg/kg/injection, schedule: Q01DX009 (ip), vehicle: saline
[7] = dose: 200.0 mg/kg/injection, schedule: Q01DX009 (ip), vehicle: saline

Cc1cc[n+](CCc2ccccc2)cc1
T/C (dose: 12.5 mg/kg/injection, schedule: Q01DX009 (ip), vehicle: carboxymethylcellulose (CMC)): 97 % of control
T/C (dose: 25.0 mg/kg/injection, schedule: Q01DX009 (ip), vehicle: carboxymethylcellulose (CMC)): 97 % of control
T/C (dose: 50.0 mg/kg/injection, schedule: Q01DX009 (ip), vehicle: carboxymethylcellulose (CMC)): 105 % of control
T/C [1]: 100 % of control
T/C (dose: 75.0 mg/kg/injection, schedule: Q01DX001 (ip), vehicle: carboxymethylcellulose (CMC)): 108 % of control
T/C (dose: 75.0 mg/kg/injection, schedule: Q01DX001 (ip), vehicle: other): 104 % of control
T/C [2]: 92 % of control and 100 % of control
T/C (dose: 150.0 mg/kg/injection, schedule: Q01DX001 (ip), vehicle: carboxymethylcellulose (CMC)): 115 % of control
T/C (dose: 150.0 mg/kg/injection, schedule: Q01DX001 (ip), vehicle: other): 104 % of control
T/C (dose: 300.0 mg/kg/injection, schedule: Q01DX001 (ip), vehicle: other): 105 % of control

CC(=O)NCCCC1CCCCC1CN (stereo not given)
T/C [2]: 104 % of control
T/C [3]: 114 % of control
T/C [4]: 114 % of control

CC1(/C=N/Nc2nnc(N/N=C/C3(C)CCC=CO3)c3ccccc23)CCC=CO1 (stereo not given)
T/C (dose: 50.0 mg/kg/injection, schedule: Q01DX001 (ip), vehicle: carboxymethylcellulose (CMC)): 106 % of control
T/C (dose: 100.0 mg/kg/injection, schedule: Q01DX001 (ip), vehicle: carboxymethylcellulose (CMC)): 104 % of control
T/C (dose: 200.0 mg/kg/injection, schedule: Q01DX001 (ip), vehicle: carboxymethylcellulose (CMC)): 87 % of control

CCOC(=O)c1ccc(NCC(C)(C)N(C)C)cc1
T/C (dose: 12.0 mg/kg/injection, schedule: Q01DX009 (ip), vehicle: saline): 93 % of control
T/C (dose: 12.0 mg/kg/injection, schedule: Q04DX003 (ip), vehicle: saline): 93 % of control
T/C (dose: 25.0 mg/kg/injection, schedule: Q01DX009 (ip), vehicle: saline): 89 % of control
T/C (dose: 25.0 mg/kg/injection, schedule: Q04DX003 (ip), vehicle: saline): 98 % of control
T/C [5]: 90 % of control
T/C [1]: 95 % of control

O=C(N=c1scc(-c2ccc(Br)cc2)n1-c1cccc2ccccc12)c1ccccc1F
T/C (dose: 25.0 mg/kg/injection, schedule: Q01DX009 (ip), vehicle: saline with Tween-80): 89 % of control
T/C (dose: 50.0 mg/kg/injection, schedule: Q01DX009 (ip), vehicle: saline with Tween-80): 87 % of control
T/C (dose: 100.0 mg/kg/injection, schedule: Q01DX009 (ip), vehicle: saline with Tween-80): 93 % of control

O=c1c2[nH]cnc2nnn1CCc1ccccc1
T/C (dose: 100.0 mg/kg/injection, schedule: Q01DX001 (ip), vehicle: other): 94 % of control
T/C (dose: 200.0 mg/kg/injection, schedule: Q01DX001 (ip), vehicle: other): 93 % of control
T/C (dose: 400.0 mg/kg/injection, schedule: Q01DX001 (ip), vehicle: other): 91 % of control

Cn1c(O)c(N)c(=O)n(C)c1=O
T/C [5]: 98 % of control
T/C [6]: 92 % of control

CCCCCCCCCCCCSC1=CC(=O)C=CC1=O
T/C (dose: 5.0 mg/kg/injection, schedule: Q01DX001 (ip), vehicle: saline): 101 % of control
T/C (dose: 10.0 mg/kg/injection, schedule: Q01DX001 (ip), vehicle: saline): 108 % of control
T/C (dose: 20.0 mg/kg/injection, schedule: Q01DX001 (ip), vehicle: saline): 97 % of control
T/C (dose: 40.0 mg/kg/injection, schedule: Q01DX001 (ip), vehicle: saline): 112 % of control
T/C (dose: 80.0 mg/kg/injection, schedule: Q01DX001 (ip), vehicle: saline): 112 % of control

CN(CCO)C1=C(N2CC2)C(=O)C(N(C)CCO)=C(N2CC2)C1=O
T/C (dose: 0.12 mg/kg/injection, schedule: Q01DX001 (ip), vehicle: saline): 103 % of control
T/C (dose: 0.12 mg/kg/injection, schedule: Q01DX009 (ip), vehicle: saline): 104 % of control and 105 % of control
T/C (dose: 0.24 mg/kg/injection, schedule: Q04DX003 (ip), vehicle: saline): 119 % of control
T/C (dose: 0.25 mg/kg/injection, schedule: Q01DX001 (ip), vehicle: saline): 100 % of control
T/C (dose: 0.25 mg/kg/injection, schedule: Q01DX009 (ip), vehicle: saline): 121 % of control
T/C (dose: 0.5 mg/kg/injection, schedule: Q01DX001 (ip), vehicle: saline): 112 % of control
T/C (dose: 0.55 mg/kg/injection, schedule: Q04DX003 (ip), vehicle: saline): 122 % of control
T/C (dose: 1.0 mg/kg/injection, schedule: Q01DX009 (ip), vehicle: saline): 184 % of control and 214 % of control
T/C (dose: 1.5 mg/kg/injection, schedule: Q04DX003 (ip), vehicle: saline): 111 % of control
T/C (dose: 3.0 mg/kg/injection, schedule: Q04DX003 (ip), vehicle: saline): 97 % of control

CCOC(=O)c1cc([N+](=O)[O-])c(C)s1
T/C (dose: 100.0 mg/kg/injection, schedule: Q01DX009 (sc), vehicle: olive oil, sesame oil, peanut oil): 104 % of control
T/C (dose: 100.0 mg/kg/injection, schedule: Q04DX003 (sc), vehicle: olive oil, sesame oil, peanut oil): 101 % of control
T/C (dose: 200.0 mg/kg/injection, schedule: Q01DX009 (sc), vehicle: olive oil, sesame oil, peanut oil): 95 % of control
T/C (dose: 200.0 mg/kg/injection, schedule: Q04DX003 (sc), vehicle: olive oil, sesame oil, peanut oil): 107 % of control
T/C (dose: 400.0 mg/kg/injection, schedule: Q01DX009 (sc), vehicle: olive oil, sesame oil, peanut oil): 90 % of control
T/C (dose: 400.0 mg/kg/injection, schedule: Q04DX003 (sc), vehicle: olive oil, sesame oil, peanut oil): 106 % of control

O=C(O)CC(O)C(F)(F)C(F)(F)C(F)(F)F (stereo not given)
T/C [6]: 90 % of control
T/C [2]: 100 % of control
T/C [7]: 86 % of control
T/C [3]: 97 % of control
T/C [4]: 87 % of control

COc1cc([N+](=O)[O-])cc2c(C)cc(=O)[nH]c12
T/C (dose: 100.0 mg/kg/injection, schedule: Q01DX001 (ip), vehicle: saline): 95 % of control
T/C [6]: 103 % of control
T/C (dose: 200.0 mg/kg/injection, schedule: Q01DX001 (ip), vehicle: saline): 99 % of control
T/C [7]: 92 % of control
T/C (dose: 400.0 mg/kg/injection, schedule: Q01DX001 (ip), vehicle: saline): 93 % of control
T/C (dose: 400.0 mg/kg/injection, schedule: Q01DX009 (ip), vehicle: saline): 93 % of control

O=C1NC23CC=CCC12CCC3 (stereo not given)
T/C (dose: 100.0 mg/kg/injection, schedule: Q04DX002 (ip), vehicle: saline): 100 % of control
T/C (dose: 200.0 mg/kg/injection, schedule: Q04DX002 (ip), vehicle: saline): 93 % of control
T/C (dose: 400.0 mg/kg/injection, schedule: Q04DX002 (ip), vehicle: saline): 109 % of control

CC(C)C(NC(=O)CNC(=O)CNC(=O)OCc1ccccc1)C(=O)OCc1ccccc1 (stereo not drawn) (Cbz-Gly-Gly-[ξV]-OBn)
T/C (dose: 100.0 mg/kg/injection, schedule: Q04DX003 (ip), vehicle: Klucel (hydroxypropylcellulose) (HPC)): 95 % of control
T/C (dose: 200.0 mg/kg/injection, schedule: Q04DX003 (ip), vehicle: Klucel (hydroxypropylcellulose) (HPC)): 96 % of control
T/C (dose: 400.0 mg/kg/injection, schedule: Q04DX003 (ip), vehicle: Klucel (hydroxypropylcellulose) (HPC)): 96 % of control

CCN(CCCl)CC1C(c2ccccc2)C1c1ccccc1 (stereo not given)
T/C (dose: 25.0 mg/kg/injection, schedule: Q04DX002 (ip), vehicle: Klucel (hydroxypropylcellulose) (HPC)): 94 % of control
T/C (dose: 50.0 mg/kg/injection, schedule: Q04DX002 (ip), vehicle: Klucel (hydroxypropylcellulose) (HPC)): 87 % of control
